Measured values from ChEMBL document CHEMBL4251601 (Eur J Med Chem, 2018).
Active and inactive are the calls of the source. The rule behind the calls is not given here.

Key:
[1] = molecular target: Insulin receptor (Homo sapiens) (UniProt P06213); test: Inhibition of recombinant human GST-tagged INSR cytoplasmic domain expressed in baculovirus expression system at 1 uM by Z'-Lyte assay relative to control
[2] = molecular target: Glycogen synthase kinase-3 beta (Homo sapiens) (UniProt P49841); test: Inhibition of recombinant human full length His-tagged GSK3beta expressed in baculovirus expression system at 1 uM by Z'-Lyte assay relative to control
[3] = molecular target: Calcium/calmodulin-dependent protein kinase type II subunit beta (Homo sapiens) (UniProt Q13554); test: Inhibition of recombinant full length human His-tagged CAMK2B expressed in baculovirus expression system at 0.1 uM by Z'-Lyte assay relative to control
Calcium/calmodulin-dependent protein kinase type II subunit beta (Homo sapiens), sequence (Q13554 whole entry, the tested form may be a part): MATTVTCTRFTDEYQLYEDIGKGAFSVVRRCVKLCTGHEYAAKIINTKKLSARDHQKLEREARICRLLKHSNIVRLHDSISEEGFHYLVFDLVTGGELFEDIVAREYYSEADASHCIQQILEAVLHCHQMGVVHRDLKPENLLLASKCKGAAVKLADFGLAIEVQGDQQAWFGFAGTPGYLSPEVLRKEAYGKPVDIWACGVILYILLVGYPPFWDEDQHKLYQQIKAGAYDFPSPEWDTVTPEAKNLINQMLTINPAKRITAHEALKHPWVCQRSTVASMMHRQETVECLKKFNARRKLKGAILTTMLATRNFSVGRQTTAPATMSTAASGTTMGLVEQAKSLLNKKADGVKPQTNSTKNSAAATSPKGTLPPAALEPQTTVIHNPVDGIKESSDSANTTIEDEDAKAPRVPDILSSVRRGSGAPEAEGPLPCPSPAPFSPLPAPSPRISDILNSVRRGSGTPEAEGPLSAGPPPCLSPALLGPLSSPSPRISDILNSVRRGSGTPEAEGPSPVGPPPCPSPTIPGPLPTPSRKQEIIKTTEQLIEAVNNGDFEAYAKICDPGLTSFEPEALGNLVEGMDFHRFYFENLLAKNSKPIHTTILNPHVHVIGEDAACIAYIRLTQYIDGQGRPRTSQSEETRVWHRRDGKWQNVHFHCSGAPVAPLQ

[4] = tested on: Epidermal growth factor receptor (Homo sapiens), P00533 [L858R,T790M]; test: Inhibition of recombinant human GST-tagged EGFR T790M/L858R double mutant expressed in baculovirus expression system at 0.1 uM by TR-FRET assay relative to control
Epidermal growth factor receptor (Homo sapiens), P00533 [L858R,T790M], sequence (P00533 whole entry T790M/L858R, looked up): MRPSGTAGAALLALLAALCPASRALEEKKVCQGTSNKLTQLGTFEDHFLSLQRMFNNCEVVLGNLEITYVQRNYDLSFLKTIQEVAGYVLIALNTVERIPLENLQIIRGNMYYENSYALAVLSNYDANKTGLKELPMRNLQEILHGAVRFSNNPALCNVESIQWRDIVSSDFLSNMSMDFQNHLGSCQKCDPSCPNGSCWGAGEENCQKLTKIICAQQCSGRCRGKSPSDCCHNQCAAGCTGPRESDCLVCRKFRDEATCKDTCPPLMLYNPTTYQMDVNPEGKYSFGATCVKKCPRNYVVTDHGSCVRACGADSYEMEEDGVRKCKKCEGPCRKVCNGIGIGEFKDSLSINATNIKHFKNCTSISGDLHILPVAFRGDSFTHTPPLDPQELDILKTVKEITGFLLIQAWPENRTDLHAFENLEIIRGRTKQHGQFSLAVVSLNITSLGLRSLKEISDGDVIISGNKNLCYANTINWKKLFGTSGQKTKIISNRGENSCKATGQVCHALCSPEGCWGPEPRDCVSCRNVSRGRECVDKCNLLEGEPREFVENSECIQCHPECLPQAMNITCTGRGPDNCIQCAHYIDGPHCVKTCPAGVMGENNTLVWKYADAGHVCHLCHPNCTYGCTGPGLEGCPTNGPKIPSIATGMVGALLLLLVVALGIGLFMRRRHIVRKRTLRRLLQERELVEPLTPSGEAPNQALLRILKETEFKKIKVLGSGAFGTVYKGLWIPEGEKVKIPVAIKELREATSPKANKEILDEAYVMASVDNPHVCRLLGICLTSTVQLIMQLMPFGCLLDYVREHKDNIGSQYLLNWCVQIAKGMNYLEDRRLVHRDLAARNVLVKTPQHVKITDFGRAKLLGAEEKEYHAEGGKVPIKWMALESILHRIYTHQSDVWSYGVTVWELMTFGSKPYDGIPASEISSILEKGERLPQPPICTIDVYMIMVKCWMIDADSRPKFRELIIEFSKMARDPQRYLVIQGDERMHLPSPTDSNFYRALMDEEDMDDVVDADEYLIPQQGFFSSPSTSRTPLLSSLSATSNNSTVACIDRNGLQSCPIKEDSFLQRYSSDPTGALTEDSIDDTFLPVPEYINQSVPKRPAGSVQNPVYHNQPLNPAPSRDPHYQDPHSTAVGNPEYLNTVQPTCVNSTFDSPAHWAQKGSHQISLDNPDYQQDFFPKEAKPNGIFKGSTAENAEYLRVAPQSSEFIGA

[5] = AUC (0 to 24 hrs) in ICR mouse at 2 mg/kg, iv administered as single dose by LC-MS/MS analysis; assay type: ADME, organism-based; set-up: dose 2 mg/kg, time < 24 hr, route intravenous; details: in vivo
[6] = molecular target: Protein-tyrosine kinase 6 (Homo sapiens) (UniProt Q13882); test: Inhibition of recombinant human full length His-tagged PTK6 expressed in baculovirus expression system at 1 uM by TR-FRET assay relative to control
[7] = molecular target: Tyrosine-protein kinase Lck (Homo sapiens) (UniProt P06239); test: Inhibition of recombinant human full length His-tagged LCK expressed in baculovirus expression system at 0.1 uM by Z'-Lyte assay relative to control
[8] = molecular target: Protein kinase C beta type (Homo sapiens) (UniProt P05771); test: Inhibition of PKCbeta2 (unknown origin) at 0.1 uM by Z'-Lyte assay relative to control
Protein kinase C beta type (Homo sapiens), sequence (P05771 2-671 limits assumed): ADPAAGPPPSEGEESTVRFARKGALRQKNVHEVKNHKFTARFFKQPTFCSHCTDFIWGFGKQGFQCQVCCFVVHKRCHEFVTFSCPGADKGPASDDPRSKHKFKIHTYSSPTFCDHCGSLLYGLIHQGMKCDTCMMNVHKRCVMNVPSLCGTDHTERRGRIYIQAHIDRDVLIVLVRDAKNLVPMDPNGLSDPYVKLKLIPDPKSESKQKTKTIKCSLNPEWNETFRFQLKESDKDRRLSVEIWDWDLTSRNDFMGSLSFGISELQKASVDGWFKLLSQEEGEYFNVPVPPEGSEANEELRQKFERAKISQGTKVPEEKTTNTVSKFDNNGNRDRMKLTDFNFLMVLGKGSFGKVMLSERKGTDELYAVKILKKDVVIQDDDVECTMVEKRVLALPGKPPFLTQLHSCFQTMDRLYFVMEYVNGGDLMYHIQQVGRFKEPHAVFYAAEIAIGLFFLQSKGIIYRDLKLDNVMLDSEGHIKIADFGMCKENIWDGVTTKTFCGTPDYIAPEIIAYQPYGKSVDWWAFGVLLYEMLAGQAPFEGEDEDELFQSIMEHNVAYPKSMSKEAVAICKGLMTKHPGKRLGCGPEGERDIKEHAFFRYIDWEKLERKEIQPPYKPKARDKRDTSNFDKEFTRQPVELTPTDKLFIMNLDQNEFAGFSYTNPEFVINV

[9] = AUC (0 to 24 hrs) in Sprague-Dawley rat at 5 mg/kg, po administered as single dose by LC-MS/MS analysis; assay type: ADME, organism-based; set-up: time < 24 hr, dose 5 mg/kg, route oral; details: in vivo
[10] = molecular target: Vascular endothelial growth factor receptor 2 (Homo sapiens) (UniProt P35968); test: Inhibition of recombinant human His-tagged KDR cytoplasmic domain expressed in baculovirus expression system at 1 uM by Z'-Lyte assay relative to control
[11] = molecular target: RAC-beta serine/threonine-protein kinase (Homo sapiens) (UniProt P31751); test: Inhibition of recombinant full length human His-tagged AKT2 expressed in baculovirus expression system at 1 uM by TR-FRET assay relative to control
[12] = tested on: Mitogen-activated protein kinase kinase kinase 7; test: Inhibition of TAK1 (unknown origin) at 1 uM by TR-FRET assay relative to control; details: Homo sapiens
[13] = Tmax in CD-1 mouse brain at 10 mg/kg, po administered as single dose by LC-MS/MS analysis; assay type: ADME, organism-based
[14] = molecular target: Tyrosine-protein kinase Lyn (Homo sapiens) (UniProt P07948); test: Inhibition of recombinant human full length GST-tagged Lyn-A expressed in insect cells at 0.1 uM by Z'-Lyte assay relative to control
[15] = Cmax in ICR mouse at 5 mg/kg, po administered as single dose by LC-MS/MS analysis; assay type: ADME, organism-based; set-up: dose 5 mg/kg, route oral; details: in vivo
[16] = molecular target: Insulin receptor (Homo sapiens) (UniProt P06213); test: Inhibition of recombinant human GST-tagged INSR cytoplasmic domain expressed in baculovirus expression system at 0.1 uM by Z'-Lyte assay relative to control
[17] = molecular target: STE20-like serine/threonine-protein kinase (Homo sapiens) (UniProt Q9H2G2); test: Inhibition of recombinant human full length GST-tagged SLK expressed in baculovirus expression system at 0.1 uM by LanthaScreen assay relative to control
[18] = molecular target: Serine/threonine-protein kinase MARK1 (Homo sapiens) (UniProt Q9P0L2); test: Inhibition of recombinant human full length GST-tagged MARK1 expressed in baculovirus expression system at 0.1 uM by Z'-Lyte assay relative to control
[19] = molecular target: G protein-coupled receptor kinase 3 (Homo sapiens) (UniProt P35626); test: Inhibition of recombinant human full length GST-tagged GRK3 expressed in baculovirus expression system at 1 uM by Z'-Lyte assay relative to control
G protein-coupled receptor kinase 3 (Homo sapiens), sequence (P35626 whole entry): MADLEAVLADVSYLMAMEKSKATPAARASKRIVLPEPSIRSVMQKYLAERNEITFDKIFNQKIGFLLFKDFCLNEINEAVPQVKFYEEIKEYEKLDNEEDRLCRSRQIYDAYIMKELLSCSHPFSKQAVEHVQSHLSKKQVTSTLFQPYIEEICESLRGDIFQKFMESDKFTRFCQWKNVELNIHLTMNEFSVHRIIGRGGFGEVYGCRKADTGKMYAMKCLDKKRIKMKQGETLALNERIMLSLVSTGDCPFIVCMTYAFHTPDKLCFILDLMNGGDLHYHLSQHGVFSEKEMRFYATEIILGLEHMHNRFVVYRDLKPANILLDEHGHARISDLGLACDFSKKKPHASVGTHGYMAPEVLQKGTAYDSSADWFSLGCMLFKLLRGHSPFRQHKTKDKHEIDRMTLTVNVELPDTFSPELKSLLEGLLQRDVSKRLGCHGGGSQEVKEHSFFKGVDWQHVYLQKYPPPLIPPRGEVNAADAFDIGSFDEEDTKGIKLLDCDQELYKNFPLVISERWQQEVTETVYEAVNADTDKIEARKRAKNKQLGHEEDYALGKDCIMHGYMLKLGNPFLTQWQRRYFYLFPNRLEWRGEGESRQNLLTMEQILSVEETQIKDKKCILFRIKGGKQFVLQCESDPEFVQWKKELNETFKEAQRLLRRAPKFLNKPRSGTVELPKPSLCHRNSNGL

[20] = molecular target: G protein-coupled receptor kinase 6 (Homo sapiens) (UniProt P43250); test: Inhibition of recombinant human full length GST-tagged GRK6 expressed in baculovirus expression system at 0.1 uM by Z'-Lyte assay relative to control
Mus musculus [21] = test: In vivo inhibition of CDK4/6 in nude mouse xenografted with human COLO205 cells assessed as reduction in Ser-780-phosphorylated Rb level in tumor administered via oral gavage after 24 hrs by Western blot analysis; assay type: functional, organism-based
[22] = molecular target: Aurora kinase B (Homo sapiens) (UniProt Q96GD4); test: Inhibition of recombinant full length human His-tagged AURKB expressed in baculovirus expression system at 0.1 uM by Z'-Lyte assay relative to control
Aurora kinase B (Homo sapiens), sequence (Q96GD4 whole entry): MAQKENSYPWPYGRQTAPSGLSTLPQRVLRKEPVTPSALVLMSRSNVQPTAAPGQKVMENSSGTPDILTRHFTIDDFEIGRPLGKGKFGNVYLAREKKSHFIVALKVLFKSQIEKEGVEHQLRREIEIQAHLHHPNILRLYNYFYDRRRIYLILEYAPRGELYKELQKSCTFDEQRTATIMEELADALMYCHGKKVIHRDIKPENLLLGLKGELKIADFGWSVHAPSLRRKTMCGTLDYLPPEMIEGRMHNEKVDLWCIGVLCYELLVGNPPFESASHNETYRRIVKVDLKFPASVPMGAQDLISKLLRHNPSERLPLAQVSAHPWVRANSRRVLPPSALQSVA

[23] = molecular target: Aurora kinase B (Homo sapiens) (UniProt Q96GD4); test: Inhibition of recombinant full length human His-tagged AURKB expressed in baculovirus expression system at 1 uM by Z'-Lyte assay relative to control
[24] = molecular target: Tyrosine-protein kinase BTK (Homo sapiens) (UniProt Q06187); test: Inhibition of recombinant full length human His-tagged BTK expressed in baculovirus expression system at 1 uM by TR-FRET assay relative to control
Mus musculus [25] = test: In vivo inhibition of CDK4/6 in nude mouse xenografted with human COLO205 cells assessed as reduction in Ser-780-phosphorylated Rb level in tumor at 100 mg/kg administered via oral gavage measured after 24 to 48 hrs by Western blot analysis; assay type: functional, organism-based
[26] = tested on: ALK tyrosine kinase receptor (Homo sapiens), Q9UM73 [L1196M]; test: Inhibition of recombinant N-terminal GST-tagged human ALK cytoplasmic domain (1058 to 1620 residues) L1196M mutant expressed in baculovirus expression system at 1 uM by TR-FRET assay relative to control
U-87 MG [27] = test: Antitumor activity against luciferase-fused human U87MG cells orthotopically xenografted in nude mouse assessed as increase in mouse life span at 12.5 mg/kg, po qd for 5 weeks relative to control; assay type: functional, U-87MG ATCC; details: 840 h
U-87 MG [28] = test: Antitumor activity against luciferase-fused human U87MG cells orthotopically xenografted in nude mouse assessed as tumor growth inhibition at 50 mg/kg, po qd for 4 weeks by bioluminescence imaging relative to control; assay type: functional, U-87MG ATCC; details: 672 h, read-out: TGI
[29] = molecular target: Tyrosine-protein kinase receptor TYRO3 (Homo sapiens) (UniProt Q06418); test: Inhibition of recombinant human GST-tagged TYRO3 cytoplasmic domain (451 to 890 residues) expressed in baculovirus expression system at 1 uM by Z'-Lyte assay relative to control
[30] = molecular target: Calcium/calmodulin-dependent protein kinase type II subunit beta (Homo sapiens) (UniProt Q13554); test: Inhibition of recombinant full length human His-tagged CAMK2B expressed in baculovirus expression system at 1 uM by Z'-Lyte assay relative to control
[31] = molecular target: Platelet-derived growth factor receptor beta (Homo sapiens) (UniProt P09619); test: Inhibition of recombinant human His-tagged PDGFRbeta cytoplasmic domain expressed in baculovirus expression system at 0.1 uM by Z'-Lyte assay relative to control

Insulin receptor (Homo sapiens), sequence (P06213 28-758 limits assumed): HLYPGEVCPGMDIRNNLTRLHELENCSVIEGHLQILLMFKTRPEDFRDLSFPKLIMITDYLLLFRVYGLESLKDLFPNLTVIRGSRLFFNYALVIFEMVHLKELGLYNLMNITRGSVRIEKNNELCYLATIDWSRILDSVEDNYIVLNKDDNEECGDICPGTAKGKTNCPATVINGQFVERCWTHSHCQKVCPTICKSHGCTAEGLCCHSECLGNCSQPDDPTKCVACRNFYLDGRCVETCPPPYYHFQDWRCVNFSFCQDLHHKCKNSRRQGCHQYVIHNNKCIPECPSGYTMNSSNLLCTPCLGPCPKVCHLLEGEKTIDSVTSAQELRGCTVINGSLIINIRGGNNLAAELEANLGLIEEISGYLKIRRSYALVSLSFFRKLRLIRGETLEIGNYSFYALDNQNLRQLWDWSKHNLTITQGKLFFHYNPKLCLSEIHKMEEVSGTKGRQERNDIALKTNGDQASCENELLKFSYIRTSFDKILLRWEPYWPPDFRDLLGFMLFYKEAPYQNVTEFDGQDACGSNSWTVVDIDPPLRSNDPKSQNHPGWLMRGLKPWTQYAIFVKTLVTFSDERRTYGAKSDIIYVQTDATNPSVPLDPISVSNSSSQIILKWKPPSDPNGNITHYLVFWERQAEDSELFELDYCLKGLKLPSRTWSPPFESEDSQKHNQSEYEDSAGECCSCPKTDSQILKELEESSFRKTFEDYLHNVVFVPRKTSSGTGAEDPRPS
Insulin receptor (Homo sapiens), sequence (P06213 763-1382 limits assumed): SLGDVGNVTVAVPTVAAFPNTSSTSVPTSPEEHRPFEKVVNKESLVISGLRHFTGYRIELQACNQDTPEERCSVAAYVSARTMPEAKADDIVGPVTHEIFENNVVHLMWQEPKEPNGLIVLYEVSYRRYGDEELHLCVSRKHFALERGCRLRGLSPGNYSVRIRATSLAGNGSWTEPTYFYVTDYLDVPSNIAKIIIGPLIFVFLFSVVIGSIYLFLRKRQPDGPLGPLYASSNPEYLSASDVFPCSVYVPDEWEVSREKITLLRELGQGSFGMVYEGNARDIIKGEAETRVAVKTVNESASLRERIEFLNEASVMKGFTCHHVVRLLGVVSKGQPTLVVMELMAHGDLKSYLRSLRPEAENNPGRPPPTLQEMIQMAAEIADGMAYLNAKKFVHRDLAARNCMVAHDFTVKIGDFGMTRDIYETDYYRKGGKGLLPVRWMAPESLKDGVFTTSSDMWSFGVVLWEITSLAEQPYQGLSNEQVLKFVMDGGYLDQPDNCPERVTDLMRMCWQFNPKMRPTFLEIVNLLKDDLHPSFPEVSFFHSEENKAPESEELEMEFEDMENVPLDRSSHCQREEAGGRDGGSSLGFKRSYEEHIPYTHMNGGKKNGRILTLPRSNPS

**Q.** For `CC1=Nc2c(F)cc(-c3nc(Nc4ccc(C5CCN(C)CC5)cn4)ncc3F)cc2C12CCCC2` [CROZBACICLIB], which inhibition [1] is on record?
**A.** 12%

**Q.** What about the inhibition [2] of the same molecule?
**A.** 81%

**Q.** And the inhibition [3]?
**A.** 25%

**Q.** What about the inhibition [4] of the same molecule?
**A.** 27%

**Q.** What about the AUC(0-t) at 24 h [5] of the same molecule?
**A.** 1140 ng·h/mL

**Q.** What about the inhibition [6] of the same molecule?
**A.** 34%

**Q.** What about the inhibition [7] of the same molecule?
**A.** 3%

**Q.** And the inhibition [8]?
**A.** 3%

**Q.** What about the AUC(0-t) at 24 h [9] of the same molecule?
**A.** 1530 ng·h/mL

**Q.** What about the inhibition [10] of the same molecule?
**A.** 14%

**Q.** What about the inhibition [11] of the same molecule?
**A.** 9%

**Q.** What about the inhibition [12] of the same molecule?
**A.** 17%

**Q.** What about the Tmax [13] of the same molecule?
**A.** 2 h

**Q.** What about the inhibition [14] of the same molecule?
**A.** 0%

**Q.** What about the Cmax [15] of the same molecule?
**A.** 134 ng/mL

**Q.** And the inhibition [16]?
**A.** 2%

**Q.** What about the inhibition [17] of the same molecule?
**A.** 11%

**Q.** And the inhibition [18]?
**A.** 3%

**Q.** What about the inhibition [19] of the same molecule?
**A.** -7%

**Q.** What about the inhibition [20] of the same molecule?
**A.** -4%

**Q.** What about the inhibition (Mus musculus [21]) of the same molecule?
**A.** Dose-dependent effect

**Q.** And the inhibition [22]?
**A.** 0%

**Q.** What about the inhibition [23] of the same molecule?
**A.** 6%

**Q.** What about the inhibition [24] of the same molecule?
**A.** 5%

**Q.** And the inhibition (Mus musculus [25])?
**A.** Active

**Q.** And the inhibition [26]?
**A.** 34%

**Q.** And the ILS at 12.5 mg/kg (U-87 MG [27])?
**A.** 48%

**Q.** And the inhibition in vivo at 50 mg/kg (U-87 MG [28])?
**A.** 99%

**Q.** What about the inhibition [29] of the same molecule?
**A.** 4%

**Q.** And the inhibition [30]?
**A.** 87%

**Q.** What about the inhibition [31] of the same molecule?
**A.** 4%
